Assay results from patent US20090035270A1, “COMBINATION THERAPY USING ANTI-ANGIOGENIC AGENTS AND TNF alpha” (priority 2001, published 2009).
Residues, ends and D or L forms follow the SMILES beside them. *: point of attachment. Cbz = O=C(OCc1ccccc1)*; CH2F = FC*

Columns and labels:
Type in all cases: cell-based, human
HUVEC [1] = test: Detection of apoptotic HUVEC in culture (YoPro-1 staining); settings: spheroids; TNF±IFNγ
Protocol: To test whether integrins modulate TNF-induced apoptosis, we cultured HUVEC on fibronectin (integrin-dependent adhesion) or as spheroids (integrin-independent adhesion) in the absence or presence of TNF (200 ng/ml) and of IFNγ (330 ng/ml), an enhancer of TNF cytotoxicity (Dealtry et al., Eur. J. Immunol. 17, 689-693 (1987)). […] In contrast, spheroids treated with TNF±IFNγ increased uptake of YoPro-1 (an increase suppressed by caspase inhibitors BOC, Z-VAD, IETD and DVED), DNA fragmentation, caspase-3 activation and cleavage of PARP (FIG. 2a, 2b and data not shown). To examine the effect of TNF±IFNγ on cell survival we determined the viability of untreated and treated cultures. […] Treatment with IFNγ alone was not cytotoxic (data not shown). HUVEC adhere to immobilized fibronectin via αVβ3 and α5β1 integrins (Rüegg et al., Nature Med. 4, 408-414 (1998)). To test for the individual contribution of these integrins to cell survival on fibronectin, we cultured HUVEC on plastic-immobilized mAbs (imAbs) directed against αVβ3, α1, α5 and α4 integrins.
For morphological evaluation, spheroids were embedded in Epon (Fluka Chemie) and thick sections were stained with 1% Methylene/Azur blue. For immunostaining, frozen spheroid sections were fixed in 4% (Fluka Chemis, Buchs, Switzerland) formaldehyde. After blocking with 1% BSA, sections were sequentially incubated for 1 hour with primary mAb (20 μg/ml) and a Cyan3-labeled GaM antiserum (West Grove, Pa., USA). For the TUNEL reaction, frozen spheroids sections were fixed in 4% paraformaledhyde and processed as described (Ruegg et al., I.e.). Spherouids were countsrstained with propidium iodide for total DNA content. […] The apoptosis index was determined by calculating the ratio between the green (TUNEL staining of fragmented DNA) and red (propidium iodide staining by total DNA) pixels. Number of analyzed spheroids per condition were: C, 31; T, 21; TI, 12. […] Cultures were viewed by inverted fluorescence microscopy (Leica DM IRB, Heerbrugg, Switzerland). […]

HUVEC [2] = test: HUVEC spheroid formation (aggregation) in BSA-coated wells; settings: mAbs 10 μg/ml, EDTA 5 mM, evaluated at 6 and 16 hours
Protocol: To test the effect of integrin ligation on TNF-induced apoptosis we identified conditions where endothelial cells could be cultured without integrin-dependent adhesion. Single cell suspensions of endothelial cells rapidly die by anoikis (Meredith et al., Mol. Biol. Cell 4, 953-961 (1993)) thus precluding further analysis. But by seeding human umbilical vein endothelial cells (HUVEC) at high density (1.0×10^6 cells/ml) in BSA-coated wells multicellular spheroids formed within 2-4 hours, and could be maintained for over 24 hours dependent on VE-cadherin and without any detectable contribution from integrins.
HUVEC were collected by trypsinization, resuspended in complete medium at 1.0×10^6 cells/ml and 1 ml/well were seeded into 12 wells non-tissue culture plates (Evergreen Scientific, Los Angeles, Calif., USA) previously coated with 1% BSA. For aggregation studies, 200 μl of the cell suspension were seeded into 1% BSA-coated microwells of ELISA plates (Maxisorp II, NUNC, Roskilde, Denmark) alone or in the presence of mAbs (10 μg/ml), EDTA (5 mM) or Ca^2+/EDTA (10/5 mM). Spheroid formation was evaluated at 6 hours and 16 hours. Micrographs were take with a Televal 31 microscope (Cart Zeiss AG, Zürich; Switzerland).

ICAM-1 expression = test: Flow cytometry of ICAM-1 cell surface expression induced by TNF in HUVEC; settings: HUVEC treated with TNF
Protocol: Activation of the nuclear factor-κB (NF-κB) promotes survival of cells exposed to TNF (Beg & Baltimore, Science 274, 782-784; Van Antwerp et al., Science 274, 787-789 (1996)). Since cell adhesion via integrins activates NF-κB (Scatena et al., J. Cell Biol. 141, 1083-1093 (1998)), we investigated whether the sensitivity of spheroids to TNF-induced apoptosis was due to lack of NF-κB activation. NF-κB activation was assessed by measuring I-κB phosphorylation and degradation, NF-κB nuclear translocation and cell surface expression of ICAM-1, an NF-κB-induced gene (Collins et al., Faseb J. 9, 899-909. (1995)), in spheroid and fibronectin-adherent HUVEC cultures exposed to TNF±IFNγ.
Aktmp suppresses TNF-induced apoptosis of spheroids in the presence of active NF-κB. We also tested whether both NF-κB activation and active Akt signaling were required for the survival, or whether active Akt alone was sufficient. […]
Indirect immunostaining of HUVEC and EGFP expression were performed following standard protocol (Ruegg et al., I.c.). […] Ail samples were analyzed with a FACScan II® and Cell Quest® software (Becton Dickinson, Mountain View Calif., USA).

HUVEC [3] = test: Death ligand cytotoxicity on fibronectin-cultured HUVEC with EMD121974 (viability); settings: EMD121974 300 μM, ligand 200 ng/ml, overnight
Protocol: FIG. 8. Decreased integrin ligation enhances TNF-, TRAIL- and FasL-induced cytotoxicity in vitro. HUVEC were cultured overnight on fibronectin coated microtiter plates in the absence (control) or presence of EMD121974 (300 μM), TNF (200 ng/ml), FasL (200 ng/ml), TRAIL (200 ng/ml), LIGHT (200 ng/ml), and IFNγ (330 ng/ml) as indicated. Viability was determined by MST assays.

IETD
effect of caspase inhibitor on increased YoPro-1 uptake of spheroids treated with TNF±IFNγ (HUVEC [1]): suppressed

CC(NC(=O)C(NC(=O)OCc1ccccc1)C(C)C)C(=O)NC(CC(=O)O)C(=O)CF (stereo not drawn) [Z-VAD] (Cbz-Val-Ala-Asp-CH2F; configuration not given here)
effect of caspase inhibitor on increased YoPro-1 uptake of spheroids treated with TNF±IFNγ (HUVEC [1]): suppressed

O=C(O)CN(CCN(CC(=O)O)CC(=O)O)CC(=O)O [EDTA]
HUVEC spheroid formation (HUVEC [2]): blocked spheroid formation

COC[C@H]1OC(=O)c2coc3c2[C@@]1(C)C1=C(C3=O)[C@@H]2CCC(=O)[C@@]2(C)C[C@H]1OC(C)=O [wortmannin]
inhibition of ICAM-1 expression induced by TNF (ICAM-1 expression): did not inhibit

O=c1cc(N2CCOCC2)oc2c(-c3ccccc3)cccc12 [LY294002]
inhibition of ICAM-1 expression induced by TNF (ICAM-1 expression): did not inhibit

B1: TRAIL: death ligand of the TNF-ligand family (protein, UniProt P50591 1-281, looked up)
Tumor necrosis factor ligand …: MAMMEVQGGPSLGQTCVLIVIFTVLLQSLCVAVTYVYFTNELKQMQDKYSKSGIACFLKEDDSYWDPNDEESMNSPCWQVKWQLRQLVRKMILRTSEETISTVQEKQQNISPLVRERGPQRVAAHITGTRGRSNTLSSPNSKNEKALGRKINSWESSRSGHSFLSNLHLRNGELVIHEKGFYYIYSQTYFRFQEEIKENTKNDKQMVQYIYKYTSYPDPILLMKSARNSCWSKDAEYGLYSIYQGGIFELKENDRIFVSVTNEHLIDMDHEASFFGAFLVG
sensitivity to pro-apoptotic effects of death ligand in the presence of EMD121974 (synergism with αVβ3-blockage) (HUVEC [3]): Increased sensitivity

B2: FasL: death ligand of the TNF-ligand family (Fas ligand) (protein, UniProt P48023 130-281, looked up)
Tumor necrosis factor ligand …: QIGHPSPPPEKKELRKVAHLTGKSNSRSMPLEWEDTYGIVLLSGVKYKKGGLVINETGLYFVYSKVYFRGQSCNNLPLSHKVYMRNSKYPQDLVMMEGKMMSYCTTGQMWARSSYLGAVFNLTSADHLYVNVSELSLVNFEESQTFFGLYKL
sensitivity to pro-apoptotic effects of death ligand in the presence of EMD121974 (synergism with αVβ3-blockage) (HUVEC [3]): Increased sensitivity

B3: LIGHT: ligand binding to receptors lacking a death domain (protein, UniProt O43557 83-240, looked up)
Tumor necrosis factor ligand …: LIQERRSHEVNPAAHLTGANSSLTGSGGPLLWETQLGLAFLRGLSYHDGALVVTKAGYYYIYSKVQLGGVGCPLGLASTITHGLYKRTPRYPEELELLVSQQSPCGRATSSSRVWWDSSFLGGVVHLEAGEKVVVRVLDERLVRLRDGTRSYFGAFMV
sensitivity to pro-apoptotic effects of death ligand in the presence of EMD121974 (synergism with αVβ3-blockage) (HUVEC [3]): no synergism
